Results taken from patent publication US20060229255A1, “Identification of n-alkylglycine trimers for induction of apoptosis” (priority 2003, published 2006).

Legend:
T98 g cells = experiment: Cell cycle DNA analysis in synchronized cells; type: cell-based, human; conditions: 19 h after serum re-addition, 100 μM
Description: Experimentally this finding was substantiated analysing the compounds in a cellular model with synchronized cells. T98 g cells were arrested in G1 phase (82%) by serum starvation in MCDB 105 medium after 72 h. Upon 10% serum re-addition, cells were allowed to re-enter into the cell cycle. More than 50% of the cells were in the S-phase, and only 20% remained in G1 after 19 h of FCS introduction. Addition of N10-13-10C or N13-13-10C to the cultures at the moment of serum addition restrained S-phase entry (FIG. 7. A). Around 40% of the cells were retained in G1. In conclusions both N10-13-10C and N13-13-10C were able to induce a G1 arrest either in asynchronous or in synchronized cell cultures, as determined by cell cycle DNA analysis. In comparison, Olomucine which is a cdk2 inhibitor, retained 80% of the cells in G1. The topoisomerase II inhibitor etoposide treated cells were arrested in S phase of the cell cycle (85% of the cell population).
DNA analysis. Floating and adherent cells treated with the compounds were collected by trypsinization and washed twice with PBS. The cells were permeabilized overnight at −20° C. with ice-cold ethanol 70%. The cells were washed in PBS, adjusted at 0.5×10^6 cells/ml and incubated with 20 μg/ml Propidium Iodide and 2 μl/ml RNase DNase-free for 30 min at 30° C. Cells were maintained overnight at 4° C. and then analysed by flow cytometry. Flow cytometric experiments were carried out using an Epics XL flow cytometer (Coulter Corporation, Hialeah, Fla.). The instrumet was set up with the standard configuration: excitation of the sample was done using an standard 488 nm air-cooled argon-ion laser at 15 mW power. Forward scatter (FSC), side scatter (SSC) and red (620 nm) fluorescence for PI were adquired. Optical alignement was based on optimized signal from […] fluorescent beads (Immunocheck, Epics Division). Time was used as a control of the stability of the instrument. Red fluorescence was projected on a 1024 monoparametrical histogram. Aggregates were excluded gating single cells by their area vs. peak fluorescence signal. DNA analysis (Ploidy analysis) on single fluorescence histograms was done using Multicycle software (Phoenix Flow Systems, San Diego, Calif.).
FIG. 7. […] (A) T98 g cells were synchronized and reinitiated for 19 h with FCS alone or in combination with N10-13-10C (100 μM), N13-13-10C (100 μM), Olomucine (100 μM), etoposide (5 μM) or Taxol (30 nM). Cell cycle profile was assessed by propidium iodide DNA staining and analyzed by flow cytometry. The fraction of cells with G1, S, G2/M DNA content are shown as % of total cell population. (B. and C.) Synchronized T98 g cells were reinitiated with FCS alone or in combination with serial dilutions of N4-13-10C, N5-13-10C, N10-13-10C, N13-13-10C, Olomucine or etoposide for 19 h and labeled with BrdU during the last 2 h. BrdU incorporation was assessed by ELISA using anti-BrdU antibodies. An arbitrary value of 100% was assigned to the densiometric rate of DNA synthesis by untreated cultures and all other values are depicted relative to that reference. The values are means of three (n=3) replicates.

Cdk4/CycD1 = target: T1, Cdk4/CycD1 (Homo sapiens, UniProt P11802); experiment: 33PanQinase Cdk4/CycD1 kinase assay (pRb phosphorylation); type: biochemical; conditions: 3 μM or 30 μM
T1 construct: GST; host or cells: Sf9 insect cells, baculovirus
Description: ^33Pan Qinase assays containing cycD, Cdk4 and pRb protein in the presence of 3 μM or 30 μM, N10-13-10C or N13-13-10C, were performed.
To assay Cdk4/CycD1 kinase activity, Cdk4 was expressed in Sf9 insect cells as recombinant GST-fusion protein by means of baculovirus expression system. Kinase assay was performed in 96-well FlashPlates (NEN) in a 50 μl reaction volume using the ^33PanQinase activity assay (ProQinase) and Beckman Coulter/Sagian robotic system. The reaction cocktail was 20 μl of assay buffer (50 mM Hepes-NaOH pH 7.5, 3 mM MgCl2, 3 mM MnCl2, 3 μM Na-orthovanadate, 1 mM DTT, 0.1 μM […]); 1 μg pRb protein; 100 ng enzyme; and 5 μl of test compound in 10% DMSO. The reaction cocktail was incubated at 30° C. for 80 min. The reaction was stopped with 50 μl of 0.2% (v/v) H3PO4, plates were aspirated and washed two times with 0.9% (w/v) NaCl. Incorporation of ^33P was determined with a microplate scintillation counter (Microbeta, Wallac).

cycA-Cdk2 = cycA-Cdk2 (Homo sapiens, UniProt P24941); experiment: In vitro kinase assay for Cdk2; type: biochemical; conditions: 3 μM or 30 μM
Description: We had observed that cycA protein levels and pRb hypophosphorylation decrease in cell extracts of N10-13-10C or N13-13-10C treated cells (FIG. 8). To assess whether these compounds were direct inhibitors of Cdk2 activity, in vitro kinase assays for Cdk2 were performed.
Kinase assays for testing of Cdk2/CycA-E kinase activity. ELISA plates were blocked with 200 μl of blocking solution (PBS containing 1% BSA, 0.02% Tween and 0.02% sodium Azide) overnight at 4° C. Plates were then subsequently washed 3 times, 5 min each with 100 μl of washing solution (PBS containing 0.02% Tween and 0.02% sodium Azide). Plates were then dried during 2-4 h at room temperature. Kinase assay was performed in kinase buffer (Hepes 25 mM pH 7.4 and MgCl2 10 mM) containing 4 μg of histone H1, 30 μM ATP, 2 mM DTT, 0.1 μl of ATP-P^32, 800 nM GST-CDK2, and 800 nM of GST-cyclin A in a final volume of 60 μl. Assays were carried out in the presence or absence of different concentrations of peptide mixtures to be checked. A inhibitory control was performed adding 800 nM of p21 to the reaction media. Mixtures were incubated for 30 min at 37° C. After incubation, 50 μl of each mixture was filtered in nitrocellulose membranes placed in a dot blot apparatus. […] The radioactivity associated to the membranes was detected with a “Phosphor-imager”.

T1 sequence (P11802 whole entry): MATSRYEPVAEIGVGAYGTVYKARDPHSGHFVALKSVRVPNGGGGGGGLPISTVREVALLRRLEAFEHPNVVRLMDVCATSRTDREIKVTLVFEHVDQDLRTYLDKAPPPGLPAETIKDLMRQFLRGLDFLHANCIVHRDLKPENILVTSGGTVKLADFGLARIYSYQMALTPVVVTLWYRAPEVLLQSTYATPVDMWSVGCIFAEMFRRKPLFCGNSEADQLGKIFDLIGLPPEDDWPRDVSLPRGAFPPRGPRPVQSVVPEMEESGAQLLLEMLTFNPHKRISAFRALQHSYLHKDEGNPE
T1 sequence (P24385 whole entry partner): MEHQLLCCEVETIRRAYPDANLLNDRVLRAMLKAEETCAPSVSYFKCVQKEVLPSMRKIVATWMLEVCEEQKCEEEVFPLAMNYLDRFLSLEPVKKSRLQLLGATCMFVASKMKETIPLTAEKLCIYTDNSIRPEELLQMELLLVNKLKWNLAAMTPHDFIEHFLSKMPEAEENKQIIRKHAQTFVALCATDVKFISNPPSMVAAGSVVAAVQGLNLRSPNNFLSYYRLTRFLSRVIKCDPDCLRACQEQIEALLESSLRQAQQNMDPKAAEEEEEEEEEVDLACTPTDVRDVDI

COc1ccc(CCN(CC(=O)N(CCc2ccccc2)CC(N)=O)C(=O)CNCCc2ccccc2)cc1 [N10-13-10C]
Cells retained in G1 (T98 g cells): Around 40%
Inhibition of pRb phosphorylation by cycD/Cdk4 (Cdk4/CycD1): No inhibition
Inhibition of cycA-Cdk2 kinase activity (cycA-Cdk2): Neither of both compounds was able to inhibit

COc1ccc(CCNCC(=O)N(CCc2ccc(OC)cc2)CC(=O)N(CCc2ccccc2)CC(N)=O)cc1 [N13-13-10C]
Cells retained in G1 (T98 g cells): Around 40%
Inhibition of pRb phosphorylation by cycD/Cdk4 (Cdk4/CycD1): No inhibition
Inhibition of cycA-Cdk2 kinase activity (cycA-Cdk2): Neither of both compounds was able to inhibit
